Experimental findings from patent publication US20080287396A1, “Phosphonated Fluoroquinolones, Antibacterial Analogs Thereof, and Methods for the Prevention and Treatment of Bone and Joint Infections” (TARGANTA THERAPEUTICA INC., priority 2005, published 2008) are described below.

“Also recorded” adds a separate entry of the source.

Series [1] has as its system Hela cells. Nature of the series: Cytotoxicity assay (MTS reduction). Format: cell-based. The conditions noted are these: concentrations up to 100 μM, 18 h, MTS reagent; data not shown. Here is the method: Selected compounds were also tested for their ability to inhibit growth of mammalian cells so as to ascertain levels of cytotoxicity to the mammalian host, via an assay measuring the biological reduction of the inner salt of (3-(4,5-dimethylthiazol-2-yl)-5-(3-carboxymethoxyphenyl)-2-(4-sulfophenyl)-2H-tetrazolium (MTS reagent). Assays were performed in 96-well microtiter plates. Briefly, compounds at 100, 50, 25, and 12.5 μM concentrations were incubated with 2×10^4 Hela cells per well in Dulbecco's Modified Eagle Medium (Invitrogen Corporation) containing 1% Bovine Growth Serum (HyClone) for 18 h at 37° C. under 5% CO2.

A short description of series [2]: Regeneration of drug from bone powder-bound prodrug. The class given is in vitro ADME. Particulars: PBS vs serum. The protocol: Amounts of drug “regenerated” from the phosphonated parent prodrug were measured as follows. Washed bone powder-bound prodrugs from the above section were resuspended in 400 μL PBS or in 400 μL 50% (v/v in PBS) human or rat serum. […] Methanol (5× volume relative to supernatant) was added to each supernatant and the mixture was vortexed on a floor model vortex for 15 min to extract freed fluoroquinolone. The mixture was then centrifuged at 10 000 rpm for 15 min to pellet the insoluble material. The supernatant containing the extracted fluoroquinolone was recovered and evaporated to dryness in a speed vac. The dried pellets were resuspended in PBS and the amount of fluoroquinolone was determined by fluorescence measurements as described above. The percentage of drug regenerated was deduced from the difference between amount of bound prodrug and the amount of regenerated drug. The identity of regenerated drug was deduced by MIC determination; MICs of regenerated material matched those of parent drugs but not those of prodrugs.

Series [3] is described as follows: Bone powder binding, fluorometric detection. The conditions noted are these: for Binding to bone (%) Fluorescence: 1 mg/ml compound, bone meal powder 10 mg/ml in PBS, 37° C., 1 h; for binding to osseous matter, in words: bisphosphonates bearing three hydroxy groups. Here is the method:
The ability of the example molecules to bind to bone powder was established in two parallel fashions, using either LC/MS or fluorometric detection. For LC/MS detection, a stock solution (5 mM) of the compound to be tested was added to 0.1M Tris-HCl buffer pH 7, 0.15M NaCl to reach a final concentration of 100 μM. Triplicate samples (1 mL) of the compound solutions were intensively shaken for 10 min with or without 25 mg of fresh or 20 mg of vacuum dried ground rat tibia bone. The samples were then centrifuged for 15 min at 10 000 g. The presence of unbound compound was measured by injection of 30 μL of each of the supernatants into an Agilent 1100™ LC/UV system. For fluorometric detection, an individual compound was dissolved in PBS or water (compound 52) and resuspended at a concentration of 1 mg/ml in a slurry of bone meal powder (Now Foods, Bloomingdale, Ill., USA) in PBS at 10 mg/ml. The suspension of drug/prodrug in bone meal powder was incubated at 37° C. for 1 h to allow for binding, and centrifuged at 13 000 rpm for 2 min, before recovering the supernatant. The bone meal powder pellet was then washed three times with 1 ml of PBS. All supernatants were saved and assessed for fluoroquinolone content by fluorescence measurements at excitation/emission wavelengths of 280/465 nm. The amount of fluoroquinolone was determined from standard curves generated for each experiment. Amount of drug/prodrug bound to bone powder was deduced from the difference between the input amount (typically 1 mg) and the amount recovered in the supernatants after binding. In all binding experiments, >99% of input drug was recovered in the supernatant for the parent drugs.

Series [4] deals with S. aureus ATCC 13709. Briefly: Prophylactic model of bone infection in rats. Format: in vivo, rat. The conditions noted are these: for Measured bacterial titer (Log CFU/g of bone) Test compound: 15 mg/kg IV, 2 days prior to infection; for prophylactic effect in rat model of bone infection, in words: Table 4 and FIGS. 6-8, doses as in Table 4. Here is the method: To determine the activity in vivo of bisphosphonated prodrugs of fluoroquinolones, compounds 52 and 107, derivatives of parent compounds moxifloxacin 3 (for 52), and compounds 39, 44, 49, 54, 121, 129, 141, 145, 149, derivatives of parent compound gatifloxacin 15, were used in a prophylactic model for infection. Specifically, S. aureus ATCC 13709 cells were grown overnight at 37° C. in brain heart infusion broth (BHIB). Cells were subcultured into fresh BHIB and incubated for 4 to 5 h at 37° C. The cells were washed twice with phosphate-buffered saline (PBS) and resuspended in BHIB supplemented with 10% (vol./vol.) fetal bovine serum at a density of approximately 10^10 colony forming units (CFU)/ml (based upon turbidimetry). The suspension was aliquoted and a portion was used to check the CFU count. The culture was stored frozen (−80° C.) and was used without subculture. For use as an inoculum the culture was thawed, diluted in PBS and kept in an ice bath until it was used.
Animals were infected as described by O'Reilly et al. (Antimicrobial Agents and Chemotherapy (1992), 36(12): 2693-97) to generate the bone infection. Female CD rats (age, 57 to 70 days; n=5/group; Charles River, St-Constant, Canada) were anaesthetized by isofluorane before and during the surgery. Following complete induction of anesthesia, the rat was placed ventral side up and hair was shaved from the surgical site. The skin over the leg was cleaned and disinfected (proviodine-ethanol 70%). A longitudinal incision below the knee joint was made in the sagital plane. The incision was made over the bone below the “knee joint” (tibia head or condyle) but not completely extending to the ankle. A high speed drill fitted with a 2 mm bulb bit was used to drill a hole into the medullar cavity of the tibia. Rats were injected intra-tibially with 0.05 ml 5% sodium morrhuate (sclerosing agent) and then with 0.05 ml of S. aureus suspension (ca. 5×10^5 CFU/rat). The hole was sealed by applying a small amount of dry dental cement which immediately absorbs fluids and adheres to the site. The wound was closed using 3 metal skin clips. Moxifloxacin 3 (as a positive control) was injected once at 10 mg/kg intravenously 1 h postinfection in saline, while the fluoroquinolone prodrugs (prepared in 0.9% saline) were injected as a single intravenous bolus dose at different time points prior to the infection. For comparison, the parent drug (moxifloxacin 3 or gatifloxacin 15) was also injected intravenously once at a molar equivalent dose at the same time point prior the infection.
Infected rats were sacrificed by CO2 asphyxiation 24 h postinfection to monitor the bacterial CFU count. Infected tibiae were removed, dissected free of soft tissue, and weighed. The bones were ground using a metal ball mill, resuspended in 5 ml 0.9% NaCl, serially diluted and processed for quantitative cultures. For compounds 39, 44, 49, 54, 141, 145, 149, 1 ml of the 0.9% NaCl solution was added to 50 mg of charcoal before serial dilutions. Treatment efficacies were measured in terms of Log viable bacteria (Log CFU per gram of bone). The results obtained for each group of rats were evaluated by calculating the mean Log CFU and standard deviation. The limit of detection is 2 Log CFU/g of bone. Statistical comparisons of viable bacterial counts for the different treated and untreated groups were performed with Dunnett's multiple-comparison test. Differences were considered significant when the P value was <0.05 when comparing treated infected animals to the untreated infected ones.

As for `COc1c(N2C[C@@H]3CCCN(CC(P(=O)(OC)OC)P(=O)(OC)OC)[C@@H]3C2)c(F)cc2c(=O)c(C(=O)O)cn(C3CC3)c12` [Compound 4, 7-((4aS,7aS)-1-(2,2-bis(dimethylphosphono)ethyl)-octahydropyrrolo[3,4-b]pyridin-6-yl)-1-cyclopropyl-6-fluoro-1,4-dihydro-8-methoxy-4-oxoquinoline-3-carboxylic acid], the cytotoxicity result in series [1] is on record as “no signs of any cytotoxicity”.
For the compound `COP(=O)(OC)C(CN1CCN(c2cc3c(cc2F)c(=O)c(C(=O)O)cn3C2CC2)CC1)P(=O)(OC)OC` [Compound 7, 7-(4-(2,2-bis(dimethylphosphono)ethyl)piperazin-1-yl)-1-cyclopropyl-6-fluoro-1,4-dihydro-4-oxoquinoline-3-carboxylic acid], the cytotoxicity entry in series [1] was “no signs of any cytotoxicity”.
Same read-out and setting: then `CCOP(=O)(OCC)C(NC(=O)COC(=O)c1cn(C2CC2)c2c(OC)c(N3CCN(C(=O)OC(C)(C)C)C(C)C3)c(F)cc2c1=O)P(=O)(OCC)OCC` (centres unmarked) [Compound 53, (1,1-Bis(diethylphosphono)methylcarbamoyl)methyl 7-(4-(tert-butoxycarbonyl)-3-methylpiperazin-1-yl)-1-cyclopropyl-6-fluoro-1,4-dihydro-8-methoxy-4-oxoquinoline-3-carboxylate], with “no signs of any cytotoxicity”.
As for `COc1c(N2C[C@@H]3CCCN[C@@H]3C2)c(F)cc2c(=O)c(C(=O)OCC(=O)Nc3ccc(C(P(=O)(O)O)P(=O)(O)O)cc3)cn(C3CC3)c12` [Compound 73, (4-Bisphosphonomethylphenylcarbamoyl)methyl 1-cyclopropyl-6-fluoro-1,4-dihydro-7-((4aS,7aS)-octahydropyrrolo[3,4-b]pyridin-6-yl)-8-methoxy-4-oxoquinoline-3-carboxylate], the “effect of the medium (presence or absence of serum) on regeneration rate” value (shortened to “effect of the medium”) in series [2] is given as “fairly similar rates”. Moreover, in series [3], the “Binding to bone (%) Fluorescence” value was 99.0%.
Regarding `COc1c(N2CCNC(C)C2)c(F)cc2c(=O)c(C(=O)OCC(=O)N(C)C(P(=O)(O)O)P(=O)(O)O)cn(C3CC3)c12` (centres unmarked) [Compound 82, (N-Methyl-1,1-Bisphosphonomethylcarbamoyl)methyl 7-(3-methylpiperazin-1-yl)-1-cyclopropyl-6-fluoro-1,4-dihydro-8-methoxy-4-oxoquinoline-3-carboxylate], the “effect of the medium” value in series [2] was “fairly similar rates”. The “Binding to bone (%) Fluorescence” value in series [3] is reported as 90.4%.
As to `COc1c(N2C[C@@H]3CCCN[C@@H]3C2)c(F)cc2c(=O)c(C(=O)Oc3ccc(C(P(=O)(O)O)P(=O)(O)O)cc3)cn(C3CC3)c12` [Compound 85, 4-(Bisphosphonomethyl)phenyl 1-cyclopropyl-6-fluoro-1,4-dihydro-7-((4aS,7aS)-octahydropyrrolo[3,4-b]pyridin-6-yl)-8-methoxy-4-oxoquinoline-3-carboxylate], the “effect of the medium” value in series [2] was “fairly similar rates”. For the same compound, the “Binding to bone (%) Fluorescence” value in series [3] is given as 98.9%.
Take `COc1c(N2CCNC(C)C2)c(F)cc2c(=O)c(C(=O)Oc3ccc(C(P(=O)(O)O)P(=O)(O)O)cc3)cn(C3CC3)c12` (centres unmarked) [Compound 87, 4-(Bisphosphonomethyl)phenyl 7-(3-methylpiperazin-1-yl)-1-cyclopropyl-6-fluoro-1,4-dihydro-8-methoxy-4-oxoquinoline-3-carboxylate]: the “effect of the medium” value in series [2] is “fairly similar rates”. For the same compound, in series [3], the “Binding to bone (%) Fluorescence” value amounted to 79.2%.
As for `CCCC(=O)Oc1ccc(P(=O)(O)CP(=O)(O)O)cc1C(C)(C)CC(=O)N1CCN(c2c(F)cc3c(=O)c(C(=O)O)cn(C4CC4)c3c2OC)CC1C` (centres unmarked) [Compound 149, 7-(4-(3-(2-butyroxy-5-((phosphonomethyl)phosphonoyl)phenyl)-3-methylbutanoyl)-3-methylpiperazin-1-yl)-1-cyclopropyl-6-fluoro-1,4-dihydro-8-methoxy-4-oxoquinoline-3-carboxylic acid], in series [4], the “Measured bacterial titer (Log CFU/g of bone) Test compound” value is 5.16 ± 0.72 Log CFU/g of bone and the “prophylactic effect in rat model of bone infection, in words” value was “unable to produce a positive result in vivo”. Also, in series [3], the “Binding to bone (%) Fluorescence” value was determined as 89.6% and the “binding to osseous matter, in words” value is listed as “less effectively bound”.
For the compound `COc1c(N2CCN(C(=O)CC(C)(C)c3cc(P(=O)(O)CP(=O)(O)O)ccc3OP(=O)(O)O)C(C)C2)c(F)cc2c(=O)c(C(=O)O)cn(C3CC3)c12` (centres unmarked) [Compound 153, 7-(4-(3-(2-phosphoryloxy-5-((phosphonomethyl)phosphonoyl)phenyl)-3-methylbutanoyl)-3-methylpiperazin-1-yl)-1-cyclopropyl-6-fluoro-1,4-dihydro-8-methoxy-4-oxoquinoline-3-carboxylic acid], in series [4], the “Measured bacterial titer (Log CFU/g of bone) Test compound” value is listed as 4.08 ± 0.54 Log CFU/g of bone and the “prophylactic effect in rat model of bone infection, in words” value is “unable to produce a positive result in vivo”. Further, in series [3], the “Binding to bone (%) Fluorescence” value amounted to 0% and the “binding to osseous matter, in words” value was “less effectively bound; also recorded: not bound at all”.
Turning to `COC(=O)c1cn(C2CC2)c2c(OC)c(N3C[C@@H]4CCCN[C@@H]4C3)c(F)cc2c1=O` [Compound 154, Methyl 1-cyclopropyl-6-fluoro-1,4-dihydro-7-((4aS,7aS)-octahydropyrrolo[3,4-b]pyridin-6-yl)-8-methoxy-4-oxoquinoline-3-carboxylate], the cytotoxicity entry in series [1] is reported as “no signs of any cytotoxicity”.
